Data taken from the NIST ThermoML archive (doi:10.1016/j.fluid.2017.12.037).

Assay: xn = mol fraction of the nth substance listed
Conditions: Gas, Buoyancy - hydrostatic balance with magnetic suspension - one sinker

C=C(F)C(F)(F)F [2,3,3,3-tetrafluoro-1-propene] + FCF
Conditions | mass density [kg/m3]
327.55 K, 734 kPa, x1 = 0.61 | 26.847
328.33 K, 223 kPa, x1 = 0.062 | 4.64
328.34 K, 637 kPa, x1 = 0.062 | 13.854
328.34 K, 945 kPa, x1 = 0.062 | 21.307
328.34 K, 1335 kPa, x1 = 0.062 | 31.333
328.34 K, 1696 kPa, x1 = 0.062 | 41.656
328.34 K, 2027 kPa, x1 = 0.062 | 52.145
328.43 K, 227 kPa, x1 = 0.202 | 5.515
328.43 K, 367 kPa, x1 = 0.202 | 9.049
328.43 K, 626 kPa, x1 = 0.202 | 15.83
328.43 K, 849 kPa, x1 = 0.202 | 22.032
328.43 K, 1140 kPa, x1 = 0.202 | 30.631
328.43 K, 1427 kPa, x1 = 0.202 | 39.78
328.43 K, 1696 kPa, x1 = 0.202 | 49.141
328.58 K, 1144 kPa, x1 = 0.366 | 36.066
328.58 K, 1280 kPa, x1 = 0.366 | 41.182
328.6 K, 618 kPa, x1 = 0.366 | 18.221
328.6 K, 894 kPa, x1 = 0.366 | 27.268
328.61 K, 203 kPa, x1 = 0.366 | 5.679
328.61 K, 380 kPa, x1 = 0.366 | 10.866
337.94 K, 261 kPa, x1 = 0.062 | 5.321
337.94 K, 1368 kPa, x1 = 0.062 | 30.983
337.95 K, 1030 kPa, x1 = 0.062 | 22.524
337.95 K, 1871 kPa, x1 = 0.062 | 44.844
337.95 K, 2216 kPa, x1 = 0.062 | 54.98
338.06 K, 1097 kPa, x1 = 0.202 | 27.951
338.06 K, 1440 kPa, x1 = 0.202 | 38.107
338.06 K, 1722 kPa, x1 = 0.202 | 47.144
338.06 K, 2012 kPa, x1 = 0.202 | 57.214
338.07 K, 229 kPa, x1 = 0.202 | 5.349
338.07 K, 435 kPa, x1 = 0.202 | 10.38
338.07 K, 663 kPa, x1 = 0.202 | 16.152
338.07 K, 900 kPa, x1 = 0.202 | 22.468
338.13 K, 157 kPa, x1 = 0.61 | 5.11
338.13 K, 347 kPa, x1 = 0.61 | 11.583
338.13 K, 545 kPa, x1 = 0.61 | 18.632
338.14 K, 742 kPa, x1 = 0.61 | 26.034
338.14 K, 949 kPa, x1 = 0.61 | 34.303
338.15 K, 1176 kPa, x1 = 0.61 | 43.906
338.15 K, 1363 kPa, x1 = 0.61 | 52.402
338.27 K, 391 kPa, x1 = 0.366 | 10.828
338.27 K, 1611 kPa, x1 = 0.366 | 51.607
338.28 K, 203 kPa, x1 = 0.366 | 5.523
338.28 K, 605 kPa, x1 = 0.366 | 17.163
338.28 K, 888 kPa, x1 = 0.366 | 25.992
338.28 K, 1124 kPa, x1 = 0.366 | 33.805
338.28 K, 1339 kPa, x1 = 0.366 | 41.354
346.7 K, 514 kPa, x1 = 0.202 | 11.999
346.7 K, 754 kPa, x1 = 0.202 | 17.999
346.7 K, 1075 kPa, x1 = 0.202 | 26.432
346.71 K, 102 kPa, x1 = 0.202 | 2.301
346.71 K, 314 kPa, x1 = 0.202 | 7.219
346.71 K, 1395 kPa, x1 = 0.202 | 35.395
346.71 K, 1836 kPa, x1 = 0.202 | 48.831
346.71 K, 2339 kPa, x1 = 0.202 | 66.017
346.72 K, 2053 kPa, x1 = 0.202 | 55.971
347.61 K, 2249 kPa, x1 = 0.062 | 52.666
347.62 K, 600 kPa, x1 = 0.062 | 12.06
347.62 K, 1099 kPa, x1 = 0.062 | 23.044
347.62 K, 1445 kPa, x1 = 0.062 | 31.254
347.62 K, 2663 kPa, x1 = 0.062 | 65.472
347.8 K, 256 kPa, x1 = 0.61 | 8.159
347.81 K, 464 kPa, x1 = 0.61 | 15.105
347.81 K, 667 kPa, x1 = 0.61 | 22.236
347.81 K, 880 kPa, x1 = 0.61 | 30.083
347.81 K, 1108 kPa, x1 = 0.61 | 38.968
347.81 K, 1320 kPa, x1 = 0.61 | 47.76
347.81 K, 1481 kPa, x1 = 0.61 | 54.813
347.81 K, 1715 kPa, x1 = 0.61 | 65.61
347.93 K, 143 kPa, x1 = 0.366 | 3.726
347.93 K, 390 kPa, x1 = 0.366 | 10.422
347.93 K, 675 kPa, x1 = 0.366 | 18.538
347.93 K, 897 kPa, x1 = 0.366 | 25.186
347.93 K, 1198 kPa, x1 = 0.366 | 34.699
347.93 K, 1496 kPa, x1 = 0.366 | 44.776
347.93 K, 1753 kPa, x1 = 0.366 | 54.093
347.94 K, 2000 kPa, x1 = 0.366 | 63.729
